Measurements reported in DBAASP.
≈ marks a conversion by molar mass, not a printed value.

Columns and labels:
Assay in all cases: ≥ marks a high value that may be exact or a test limit, other limits are often not marked, values filed in µg/mL are converted to µM
[1] = system: Staphylococcus aureus ATCC 12600
[2] = system: Candida albicans ATCC 10231
Botrytis cinerea = system: Botrytis cinerea
[3] = system: Escherichia coli ATCC 11775
[4] = system: Pseudomonas aeruginosa Ps4
[5] = system: Staphylococcus epidermidis C621
[6] = system: Corynebacterium xerosis C875
Escherichia coli UB1005 = system: Escherichia coli UB1005
Escherichia coli DC2 = system: Escherichia coli DC2
[7] = system: Bacillus subtilis ATCC 6633
[8] = system: Escherichia coli ATCC 25922
[9] = system: Pseudomonas aeruginosa ATCC 27853
[10] = system: Enterococcus faecalis ATCC 29212
[11] = system: Staphylococcus aureus ATCC 25923
[12] = system: Escherichia coli NCTC 10418
[13] = system: Staphylococcus aureus DSM 1104
[14] = system: Escherichia coli DSM 1103
[15] = system: Pseudomonas aeruginosa DSM 1117
[16] = system: Staphylococcus epidermidis DSM 1798

Question: Which MIC [1] does the source give for `CC(C)C[C@H](NC(=O)[C@H](C)NC(=O)[C@H](CO)NC(=O)[C@@H](NC(=O)[C@@H](NC(=O)[C@H](CO)NC(=O)[C@H](CCCCN)NC(=O)[C@@H](NC(=O)[C@H](CC(C)C)NC(=O)CNC(=O)[C@H](CC(C)C)NC(=O)[C@H](CC(C)C)NC(=O)[C@H](CC(=O)O)NC(=O)[C@@H](N)Cc1ccccc1)C(C)C)C(C)C)C(C)C)C(N)=O` [FDLLGLVKSVVSAL] here?
Answer: The MIC was 25 µM (≈ 36.5 µg/mL).

Question: What about the MIC [2] of the same molecule?
Answer: Its MIC is 100 µM (≈ 146 µg/mL).

Question: And the MIC (Botrytis cinerea)?
Answer: The MIC was 5 µM (≈ 7.3 µg/mL).

Question: And the MIC [3]?
Answer: Its MIC is no less than 200 µM.

Question: For `CC[C@H](C)[C@H](NC(=O)[C@H](CC(N)=O)NC(=O)[C@H](CCCN=C(N)N)NC(=O)[C@H](C)NC(=O)[C@H](Cc1c[nH]c2ccccc12)NC(=O)[C@@H](N)Cc1ccccc1)C(=O)N[C@@H](CCCN=C(N)N)C(=O)N[C@@H](CCCCN)C(=O)N[C@H](C(=O)N[C@@H](CCCN=C(N)N)C(N)=O)C(C)C` [FWARNIRKVR], which MIC [4] is on record?
Answer: The MIC was no less than 186 µM.

Question: `CC[C@H](C)[C@H](NC(=O)[C@H](CC(N)=O)NC(=O)[C@H](CCCN=C(N)N)NC(=O)[C@H](CC(C)C)NC(=O)[C@H](Cc1c[nH]c2ccccc12)NC(=O)[C@@H](N)Cc1ccccc1)C(=O)N[C@@H](CCCN=C(N)N)C(=O)N[C@@H](CCCCN)C(=O)N[C@H](C(=O)N[C@@H](CCCN=C(N)N)C(N)=O)C(C)C` [FWLRNIRKVR] was tested. Which MIC [4] did it give?
Answer: The MIC was no less than 180 µM.

Question: For `CC[C@H](C)[C@H](NC(=O)[C@H](CCCN=C(N)N)NC(=O)[C@@H](NC(=O)[C@H](CCCN=C(N)N)NC(=O)[C@H](CCC(N)=O)NC(=O)[C@H](Cc1c[nH]c2ccccc12)NC(=O)[C@@H](N)Cc1ccccc1)[C@@H](C)CC)C(=O)N[C@@H](CCCN=C(N)N)C(=O)N[C@@H](CCCN=C(N)N)C(N)=O` [FWQRIRIRR], which MIC [4] is on record?
Answer: Its MIC is no less than 188 µM.

Question: `CC[C@H](C)[C@H](NC(=O)[C@H](CC(N)=O)NC(=O)[C@H](CCCN=C(N)N)NC(=O)[C@H](CCC(N)=O)NC(=O)[C@H](Cc1c[nH]c2ccccc12)NC(=O)[C@@H](N)Cc1ccccc1)C(=O)N[C@@H](CCCN=C(N)N)C(=O)N[C@@H](CCCCN)C(=O)N[C@H](C(=O)N[C@@H](CO)C(N)=O)C(C)C` [FWQRNIRKVS] was tested. Which MIC [4] did it give?
Answer: Its MIC is no less than 187 µM.

Question: Which MIC [4] does the source give for `CC[C@H](C)[C@H](NC(=O)[C@H](CCCN=C(N)N)NC(=O)[C@H](Cc1c[nH]c2ccccc12)NC(=O)[C@H](CC(N)=O)NC(=O)[C@H](CCCN=C(N)N)NC(=O)[C@H](CCC(N)=O)NC(=O)[C@H](Cc1c[nH]c2ccccc12)NC(=O)[C@@H](N)Cc1ccccc1)C(=O)N[C@@H](CCCN=C(N)N)C(=O)N[C@@H](CCCN=C(N)N)C(N)=O` [FWQRNWRIRR] here?
Answer: The MIC was no less than 165 µM.

Question: How did the MIC [5] turn out when `C[C@H](NC(=O)[C@H](C)NC(=O)[C@H](C)NC(=O)[C@H](CS)NC(=O)[C@H](C)NC(=O)[C@H](C)NC(=O)[C@H](C)NC(=O)[C@H](CCCCN)NC(=O)[C@@H](N)CCCCN)C(=O)N[C@@H](C)C(=O)N[C@@H](C)C(=O)N[C@@H](CS)C(=O)N[C@@H](C)C(=O)N[C@@H](C)C(=O)N[C@@H](Cc1c[nH]c2ccccc12)C(=O)N[C@@H](C)C(=O)N[C@@H](C)C(=O)N[C@@H](CS)C(=O)N[C@@H](C)C(=O)N[C@@H](C)C(=O)N[C@@H](C)C(=O)N[C@@H](CCCCN)C(=O)N[C@@H](CCCCN)C(=O)N[C@@H](CCCCN)C(=O)N[C@@H](CCCCN)C(N)=O` [KKAAACAAAAACAAWAACAAAKKKK] was run?
Answer: Its MIC is no less than 32 µM.

Question: What about the MIC [6] of the same molecule?
Answer: Its MIC is 1 µM (≈ 2.35 µg/mL).

Question: And the MIC (Escherichia coli UB1005)?
Answer: The MIC was 16 µM (≈ 37.6 µg/mL).

Question: And the MIC (Escherichia coli DC2)?
Answer: Its MIC is 8 µM (≈ 18.8 µg/mL).

Question: For `C[C@H](NC(=O)[C@H](C)NC(=O)[C@H](C)NC(=O)[C@H](Cc1ccccc1)NC(=O)[C@H](C)NC(=O)[C@H](C)NC(=O)[C@H](C)NC(=O)[C@H](CCCCN)NC(=O)[C@@H](N)CCCCN)C(=O)N[C@@H](C)C(=O)N[C@@H](C)C(=O)N[C@@H](Cc1ccccc1)C(=O)N[C@@H](C)C(=O)N[C@@H](C)C(=O)N[C@@H](Cc1c[nH]c2ccccc12)C(=O)N[C@@H](C)C(=O)N[C@@H](C)C(=O)N[C@@H](Cc1ccccc1)C(=O)N[C@@H](C)C(=O)N[C@@H](C)C(=O)N[C@@H](C)C(=O)N[C@@H](CCCCN)C(=O)N[C@@H](CCCCN)C(=O)N[C@@H](CCCCN)C(=O)N[C@@H](CCCCN)C(N)=O` [KKAAAFAAAAAFAAWAAFAAAKKKK], which MIC [5] is on record?
Answer: Its MIC is 2 µM (≈ 4.96 µg/mL).

Question: And the MIC [6]?
Answer: Its MIC is 0.25 µM (≈ 0.62 µg/mL).

Question: What about the MIC (Escherichia coli UB1005) of the same molecule?
Answer: Its MIC is 16 µM (≈ 39.7 µg/mL).

Question: What about the MIC [7] of the same molecule?
Answer: The MIC was 1 µM (≈ 2.48 µg/mL).

Question: And the MIC [8]?
Answer: The MIC was greater than 32 µM.

Question: What about the MIC (Escherichia coli DC2) of the same molecule?
Answer: The MIC was 4 µM (≈ 9.92 µg/mL).

Question: What about the MIC [9] of the same molecule?
Answer: Its MIC is 8 µM (≈ 19.8 µg/mL).

Question: And the MIC [10]?
Answer: The MIC was greater than 32 µM.

Question: What about the MIC [11] of the same molecule?
Answer: Its MIC is greater than 32 µM.

Question: How did the MIC [5] turn out when `C[C@H](NC(=O)[C@H](C)NC(=O)[C@H](C)NC(=O)[C@H](Cc1ccccc1)NC(=O)[C@H](C)NC(=O)[C@H](CCCCN)NC(=O)[C@@H](N)CCCCN)C(=O)N[C@@H](C)C(=O)N[C@@H](C)C(=O)N[C@@H](Cc1ccccc1)C(=O)N[C@@H](C)C(=O)N[C@@H](C)C(=O)N[C@@H](Cc1c[nH]c2ccccc12)C(=O)N[C@@H](C)C(=O)N[C@@H](C)C(=O)N[C@@H](Cc1ccccc1)C(=O)N[C@@H](C)C(=O)N[C@@H](CCCCN)C(=O)N[C@@H](CCCCN)C(=O)N[C@@H](CCCCN)C(=O)N[C@@H](CCCCN)C(N)=O` [KKAFAAAAAFAAWAAFAKKKK] was run?
Answer: Its MIC is 8 µM (≈ 17.6 µg/mL).

Question: What about the MIC [6] of the same molecule?
Answer: Its MIC is 0.5 µM (≈ 1.1 µg/mL).

Question: And the MIC (Escherichia coli UB1005)?
Answer: Its MIC is 8 µM (≈ 17.6 µg/mL).

Question: What about the MIC [7] of the same molecule?
Answer: The MIC was 2 µM (≈ 4.39 µg/mL).

Question: What about the MIC [8] of the same molecule?
Answer: The MIC was 32 µM (≈ 70.3 µg/mL).

Question: And the MIC (Escherichia coli DC2)?
Answer: The MIC was 4 µM (≈ 8.78 µg/mL).

Question: And the MIC [9]?
Answer: Its MIC is greater than 32 µM.

Question: What about the MIC [10] of the same molecule?
Answer: Its MIC is greater than 32 µM.

Question: What about the MIC [11] of the same molecule?
Answer: Its MIC is greater than 32 µM.

Question: How did the MIC [5] turn out when `C[C@H](NC(=O)[C@H](C)NC(=O)[C@H](C)NC(=O)[C@H](Cc1ccccc1)NC(=O)[C@H](C)NC(=O)[C@H](C)NC(=O)[C@H](Cc1c[nH]c2ccccc12)NC(=O)[C@H](C)NC(=O)[C@H](C)NC(=O)[C@H](Cc1ccccc1)NC(=O)[C@H](C)NC(=O)[C@H](C)NC(=O)[C@H](C)NC(=O)[C@H](C)NC(=O)[C@H](C)NC(=O)[C@H](Cc1ccccc1)NC(=O)[C@H](C)NC(=O)[C@H](C)NC(=O)[C@H](C)NC(=O)[C@H](CCCCN)NC(=O)[C@H](CCCCN)NC(=O)[C@H](CCCCN)NC(=O)[C@H](CCCCN)NC(=O)[C@H](CCCCN)NC(=O)[C@@H](N)CCCCN)C(N)=O` [KKKKKKAAAFAAAAAFAAWAAFAAA] was run?
Answer: Its MIC is 4 µM (≈ 9.92 µg/mL).

Question: What about the MIC [6] of the same molecule?
Answer: Its MIC is 1 µM (≈ 2.48 µg/mL).

Question: And the MIC (Escherichia coli UB1005)?
Answer: The MIC was 16 µM (≈ 39.7 µg/mL).

Question: And the MIC [8]?
Answer: Its MIC is 16 µM (≈ 39.7 µg/mL).

Question: And the MIC (Escherichia coli DC2)?
Answer: Its MIC is 8 µM (≈ 19.8 µg/mL).

Question: What about the MIC [9] of the same molecule?
Answer: Its MIC is 32 µM (≈ 79.4 µg/mL).

Question: With `CC[C@H](C)[C@@H]1NC(=O)[C@H](CC(C)C)NC(=O)[C@@H](NC(=O)[C@H](Cc2ccccc2)NC(=O)[C@H](CC(C)C)NC(=O)[C@H](CCCCN)NC(=O)[C@@H]2CCCN2C(=O)[C@H](CC(C)C)NC(=O)[C@H](C)NC(=O)[C@H](C)NC(=O)[C@H](CC(C)C)NC(=O)[C@H](C)NC(=O)[C@H](CC(C)C)NC(=O)[C@H](CO)NC(=O)[C@H](CC(C)C)NC(=O)[C@@H](N)CC(C)C)CSSC[C@@H](C(=O)O)NC(=O)[C@H](CCCCN)NC(=O)[C@H](CCCCN)NC(=O)[C@H](Cc2ccccc2)NC1=O` [LLSLALAALPKLFCLIFKKC] as the molecule, how does the MIC [1] read?
Answer: Its MIC is 12.5 µM (≈ 27.5 µg/mL).

Question: And the MIC [3]?
Answer: Its MIC is 25 µM (≈ 55.1 µg/mL).

Question: Which results are given for `CSCC[C@H](NC(=O)[C@H](C)NC(=O)[C@H](C)NC(=O)[C@@H]1CCCN1C(=O)[C@H](CO)NC(=O)[C@@H](N)CC(C)C)C(=O)N[C@@H](C)C(=O)N[C@@H](CO)C(=O)N[C@@H](CC(C)C)C(=O)N[C@@H](C)C(N)=O` [LSPAAMASLA]?
Answer: MIC [1]: ≥ 200 µM; MIC [2]: > 200 µM; MIC (Botrytis cinerea): ≥ 200 µM; MIC [3]: ≥ 200 µM

Question: How did the MIC [12] turn out when `CSCC[C@H](NC(=O)[C@H](Cc1c[nH]c2ccccc12)NC(=O)[C@@H]1CCCN1C(=O)[C@@H]1CCCN1C(=O)[C@H](Cc1ccccc1)NC(=O)[C@@H](NC(=O)[C@H](Cc1cnc[nH]1)NC(=O)[C@H](Cc1ccccc1)NC(=O)[C@@H](N)CO)C(C)C)C(=O)N[C@H]1CSSC[C@@H](C(=O)O)NC(=O)[C@H](CCCCN)NC(=O)[C@H](CCCCN)NC(=O)[C@H](CC(C)C)NC(=O)[C@H](CO)NC(=O)[C@H](CCCCN)NC1=O` [SFHVFPPWMCKSLKKC] was run?
Answer: The MIC was no less than 70 µM.

Question: How did the MIC [13] turn out when `CC(C)C[C@H](NC(=O)[C@H](CCCN=C(N)N)NC(=O)[C@@H](NC(=O)[C@@H]1CCCN1C(=O)[C@@H]1CCCN1C(=O)[C@@H]1CCCN1C(=O)[C@H](CC(C)C)NC(=O)[C@H](CCCN=C(N)N)NC(=O)[C@@H](NC(=O)[C@@H]1CCCN1C(=O)[C@@H]1CCCN1C(=O)[C@@H]1CCCN1C(=O)[C@H](CC(C)C)NC(=O)[C@H](CCCN=C(N)N)NC(=O)[C@@H](N)C(C)C)C(C)C)C(C)C)C(=O)N1CCC[C@H]1C(=O)N1CCC[C@H]1C(=O)N1CCC[C@H]1C(=O)O` [VRLPPPVRLPPPVRLPPP] was run?
Answer: The MIC was no less than 122 µM.

Question: What about the MIC [14] of the same molecule?
Answer: The MIC was no less than 122 µM.

Question: And the MIC [15]?
Answer: The MIC was no less than 122 µM.

Question: And the MIC [16]?
Answer: Its MIC is no less than 122 µM.
